Results from US20250340563A1, “FUSED PYRIDAZINE DERIVATIVES AS NLRP3 INHIBITORS” (Takeda Pharmaceutical Company Limited, priority 2022, published 2025).

Target: NLRP3 inflammasome (Homo sapiens, UniProt Q96P20)
Assay: IL-1β assay in IFN-γ-differentiated, LPS-primed, ATP-activated THP-1 cells (ELISA)
Assay type: cell-based
Details: 50 ng/mL LPS priming, 2.5 mM ATP activation, 2 hours
Protocol: Monocytic THP-1 cells (ATCC: TIB-202) are maintained in accordance with the provider's instructions in RPMI media (Life Technologies, Cat #A10491-01); RPMI is supplemented with 10% heat inactivated fetal bovine serum (Hyclone Cat #SH30396.03). The cells are differentiated into macrophages by the addition of 25 ng/mL IFN-7 (PeproTech, Cat #300-02-100UG) for 24 hours at 37° C./5% CO2. Media is exchanged with fresh media with no FBS, and the cells are treated with 50 ng/mL LPS (priming step) for 24 hours at 37° C./5% CO2 (LPS-EK: Invivogen, Cat #tlrl-peklps). Media is exchanged with fresh media with no FBS. The cells are plated at 40,000 cells per well in 384-well flat-bottom cell culture plates (Costar 3764) containing compounds (added in 1:1000) in a 1:3.16 serial dilution series in DMSO and are incubated for 30 minutes at 37° C./5% CO2. The NLRP3 inflammasome is activated with the addition of 2.5 mM ATP (Sigma Cat #A3377) and the cells are incubated for 2 hours at 37° C./5% CO2. At the end of the incubation period, 40 μL supernatant is removed, and […] are monitored using an ELISA (Human […], R&D systems, Cat #DY201) in accordance with the manufacturer's instructions.
The IC50 values are calculated from a plot of percentage of inhibition versus the inhibitor concentration by a logistics curve fit according to: Y=[Bottom+(Top−Bottom)]/(1+10^[(Log IC50−X)·Hill Slope], where Y is the % inhibition at the inhibitor concentration, X, “Bottom” is the lowest inhibition value, i.e. 0%, “Top” is the maximum inhibition value, i.e. 100%, and the “Hill Slope” describes the slope of the sigmoidal curve between the “Bottom” and “Top” values. The curve fitting was conducted with internally developed software.

NLRP3 inflammasome, sequence (Q96P20 whole entry): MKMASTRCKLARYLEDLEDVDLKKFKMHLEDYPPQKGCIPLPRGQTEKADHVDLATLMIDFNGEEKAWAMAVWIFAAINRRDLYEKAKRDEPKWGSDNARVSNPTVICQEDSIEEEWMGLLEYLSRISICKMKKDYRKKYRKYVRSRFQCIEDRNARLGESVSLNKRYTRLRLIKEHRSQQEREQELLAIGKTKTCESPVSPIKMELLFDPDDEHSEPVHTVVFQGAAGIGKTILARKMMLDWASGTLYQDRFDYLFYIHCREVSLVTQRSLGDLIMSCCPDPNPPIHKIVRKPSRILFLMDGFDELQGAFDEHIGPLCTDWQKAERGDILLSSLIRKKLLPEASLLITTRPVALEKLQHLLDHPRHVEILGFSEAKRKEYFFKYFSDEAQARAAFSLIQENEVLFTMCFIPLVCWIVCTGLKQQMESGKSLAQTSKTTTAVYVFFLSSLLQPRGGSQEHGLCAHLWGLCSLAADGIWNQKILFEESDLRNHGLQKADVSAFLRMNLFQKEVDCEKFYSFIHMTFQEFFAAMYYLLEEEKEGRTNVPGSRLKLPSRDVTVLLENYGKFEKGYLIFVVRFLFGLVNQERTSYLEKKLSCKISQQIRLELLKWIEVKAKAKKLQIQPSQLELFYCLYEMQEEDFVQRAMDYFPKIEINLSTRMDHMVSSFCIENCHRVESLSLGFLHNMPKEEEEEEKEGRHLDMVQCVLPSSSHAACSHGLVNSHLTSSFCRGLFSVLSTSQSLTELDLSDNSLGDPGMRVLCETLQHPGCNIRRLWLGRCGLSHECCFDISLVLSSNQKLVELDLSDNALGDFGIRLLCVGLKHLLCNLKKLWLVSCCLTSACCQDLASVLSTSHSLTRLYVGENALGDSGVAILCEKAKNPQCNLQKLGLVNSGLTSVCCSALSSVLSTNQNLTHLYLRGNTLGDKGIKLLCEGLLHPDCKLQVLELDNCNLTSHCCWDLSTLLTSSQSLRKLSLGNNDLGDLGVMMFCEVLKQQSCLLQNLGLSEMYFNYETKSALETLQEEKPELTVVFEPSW

IC50 | Compound
28 nM | CN1CCC[C@@H](Nc2nnc(-c3ccc(C(F)(F)F)cc3)c3ccncc23)C1 [Example 34, (R)—N-(1-methylpiperidin-3-yl)-1-(4-(trifluoromethyl)phenyl)pyrido[3,4-d]pyridazin-4-amine]
955 nM | CC(=O)N1CCc2c(-c3ccc(Cl)cc3)nnc(NC3CCCN(C)C3)c2C1 (stereo not shown) [Example 105, 1-(1-(4-chlorophenyl)-4-((1-methylpiperidin-3-yl)amino)-7,8-dihydropyrido[3,4-d]pyridazin-6(5H)-yl)ethan-1-one]
933 nM | CN1CCCC(Nc2nnc(-c3ccc(F)cc3)c3ccccc23)C1 (stereo not shown) [Example 11, 4-(4-fluorophenyl)-N-(1-methylpiperidin-3-yl)phthalazin-1-amine]
183 nM | COc1ccc(-c2nnc(N[C@@H]3CCCN(C)C3)c3c(C)nccc23)c(O)c1 [Example 78, (R)-5-methoxy-2-(5-methyl-4-((1-methylpiperidin-3-yl)amino)pyrido[3,4-d]pyridazin-1-yl)phenol]
3980 nM | C[C@]1(O)CC[C@H](Nc2nnc(-c3ccc(Cl)cc3)c3ccccc23)CC1 [Example 121, trans-4-((4-(4-chlorophenyl)phthalazin-1-yl)amino)-1-methylcyclohexan-1-ol]
3800 nM | COc1ccc(-c2nnc(NC3CCCC(C)(O)C3)c3ccccc23)cc1 (stereo not shown) [Example 137, 3-((4-(4-methoxyphenyl)phthalazin-1-yl)amino)-1-methylcyclohexan-1-ol]
1480 nM | FC(F)(F)CN1CCCC(Nc2nnc(-c3ccc(Cl)cc3)c3ccccc23)C1 (stereo not shown) [Example 147, 4-(4-chlorophenyl)-N-(1-(2,2,2-trifluoroethyl)piperidin-3-yl)phthalazin-1-amine]
977 nM | CC(C)c1ccc(-c2nnc(Nc3cccc(O)c3)c3ccccc23)cc1 [Example 7, 3-((4-(4-isopropylphenyl)phthalazin-1-yl)amino)phenol]
1320 nM | Cc1cc(Cl)ccc1-c1nnc(NC2CCCN(C)C2)c2ccncc12 (stereo not shown) [Example 50, 4-(4-chloro-2-methylphenyl)-N-(1-methylpiperidin-3-yl)pyrido[3,4-d]pyridazin-1-amine]
4900 nM | CN1CCC(Nc2nnc(-c3ccc(Cl)cc3)c3ccccc23)C1=O (stereo not shown) [Example 109, 3-((4-(4-chlorophenyl)phthalazin-1-yl)amino)-1-methylpyrrolidin-2-one]
21 nM | COc1ccc(-c2nnc(N[C@@H]3CCCN(C)C3)c3cnccc23)c(F)c1 [Example 57, (R)-1-(2-fluoro-4-methoxyphenyl)-N-(1-methylpiperidin-3-yl)pyrido[3,4-d]pyridazin-4-amine]
5250 nM | CN1CCCC(Nc2nnc(-c3ccc(C(F)F)nc3)c3ccccc23)C1 (stereo not shown) [Example 2, 4-(6-(difluoromethyl)pyridin-3-yl)-N-(1-methylpiperidin-3-yl)phthalazin-1-amine]
457 nM | COc1ccc(-c2nnc(N[C@@H]3CCCN(C)C3)c3c2COCC3)cc1 [Example 223, (R)-4-(4-methoxyphenyl)-N-(1-methylpiperidin-3-yl)-7,8-dihydro-5H-pyrano[3,4-d]pyridazin-1-amine]
692 nM | CCN1CCc2c(-c3ccc(Cl)cc3)nnc(NC3CCCN(C)C3)c2C1 (stereo not shown) [Example 102, 1-(4-chlorophenyl)-6-ethyl-N-(1-methylpiperidin-3-yl)-5,6,7,8-tetrahydropyrido[3,4-d]pyridazin-4-amine]
977 nM | Clc1ccc(-c2nnc(NC3CCN(CC4CC4)C3)c3ccccc23)cc1 (stereo not shown) [Example 161, 4-(4-chlorophenyl)-N-(1-(cyclopropylmethyl)pyrrolidin-3-yl)phthalazin-1-amine]
288 nM | Cc1cc(Cl)ccc1-c1nnc(NC2CCCN(C)C2)c2cnccc12 (stereo not shown) [Example 49, 1-(4-chloro-2-methylphenyl)-N-(1-methylpiperidin-3-yl)pyrido[3,4-d]pyridazin-4-amine]
34 nM | Cc1cc(Cl)ccc1-c1nnc(N[C@@H]2CCCN(C)C2)c2cnccc12 [Example 31, (R)-1-(4-chloro-2-methylphenyl)-N-(1-methylpiperidin-3-yl)pyrido[3,4-d]pyridazin-4-amine]
3630 nM | COc1ccc(-c2nnc(NCC3(N4CCCC4)CC3)c3ccccc23)cc1 [Example 131, 4-(4-methoxyphenyl)-N-((1-(pyrrolidin-1-yl)cyclopropyl)methyl)phthalazin-1-amine]

IC50 | Compound
199 nM | COc1ccc(-c2nnc(N[C@@H]3CCCN(C)C3)c3cnccc23)cc1F [Example 25, (R)-1-(3-fluoro-4-methoxyphenyl)-N-(1-methylpiperidin-3-yl)pyrido[3,4-d]pyridazin-4-amine]
40 nM | COc1ccc(-c2nnc(N[C@@H]3CCCN(C)C3)c3ccccc23)c(F)c1 [Example 53, (R)-4-(2-fluoro-4-methoxyphenyl)-N-(1-methylpiperidin-3-yl)phthalazin-1-amine]
437 nM | Oc1cccc(Nc2nnc(-c3cccc(C4CC4)c3)c3ccccc23)c1 [Example 10, 3-((4-(3-cyclopropylphenyl)phthalazin-1-yl)amino)phenol]
2880 nM | Oc1cccc(Nc2nnc(-c3cccc(C4CCC4)c3)c3ccccc23)c1 [Example 6, 3-((4-(3-cyclobutylphenyl)phthalazin-1-yl)amino)phenol]
2290 nM | Clc1ccc(-c2nnc(NC3CCN(Cc4ccccc4)C3)c3ccccc23)cc1 (stereo not shown) [Example 158, N-(1-benzylpyrrolidin-3-yl)-4-(4-chlorophenyl)phthalazin-1-amine]
4470 nM | CN1CCCC(Nc2nnc(-c3cccc(Cl)c3)c3ccccc23)C1 (stereo not shown) [Example 17, 4-(3-chlorophenyl)-N-(1-methylpiperidin-3-yl)phthalazin-1-amine]
3090 nM | COc1cc(Cl)ccc1-c1nnc(NC2CCCN(C)C2)c2ccncc12 (stereo not shown) [Example 48, 4-(4-chloro-2-methoxyphenyl)-N-(1-methylpiperidin-3-yl)pyrido[3,4-d]pyridazin-1-amine]
708 nM | COC1CC(N2CCCC(Nc3nnc(-c4ccc(Cl)cc4)c4ccncc34)C2)C1 (stereo not shown) [Example 197, 1-(4-chlorophenyl)-N-(1-(3-methoxycyclobutyl)piperidin-3-yl)pyrido[3,4-d]pyridazin-4-amine]
4790 nM | CC(=O)N1CCC(Nc2nnc(-c3ccc(Cl)cc3)c3ccccc23)C1 (stereo not shown) [Example 160, 1-(3-((4-(4-chlorophenyl)phthalazin-1-yl)amino)pyrrolidin-1-yl)ethan-1-one]
3 nM | CN1CCC[C@@H](Nc2nnc(-c3ccc(C(F)(F)F)cc3O)c3ccncc23)C1 [Example 90, (R)-2-(4-((1-methylpiperidin-3-yl)amino)pyrido[3,4-d]pyridazin-1-yl)-5-(trifluoromethyl)phenol]
912 nM | O[C@]1(C(F)(F)F)CCC[C@@H](Nc2nnc(-c3ccc(Cl)cc3)c3ccccc23)C1 [Example 116, (1R,3R)-3-((4-(4-chlorophenyl)phthalazin-1-yl)amino)-1-(trifluoromethyl)cyclohexan-1-ol]
36 nM | CN1CCC[C@@H](Nc2nnc(-c3ccc(OC(F)(F)F)cc3)c3ccncc23)C1 [Example 32, (R)—N-(1-methylpiperidin-3-yl)-1-(4-(trifluoromethoxy)phenyl)pyrido[3,4-d]pyridazin-4-amine]
3630 nM | CN1CCCC(Nc2nnc(-c3ccc(Cl)cc3)c3c2CN(C2CC2)CC3)C1 (stereo not shown) [Example 103, 1-(4-chlorophenyl)-6-cyclopropyl-N-(1-methylpiperidin-3-yl)-5,6,7,8-tetrahydropyrido[3,4-d]pyridazin-4-amine]
692 nM | COc1cc(Cl)ccc1-c1nnc(NC2CCCN(C)C2)c2cnccc12 (stereo not shown) [Example 47, 1-(4-chloro-2-methoxyphenyl)-N-(1-methylpiperidin-3-yl)pyrido[3,4-d]pyridazin-4-amine]
157 nM | CN1CCC[C@@H](Nc2nnc(-c3ccc(OC(F)(F)F)c(C#N)c3)c3ccncc23)C1 [Example 24, (R)-5-(4-((1-methylpiperidin-3-yl)amino)pyrido[3,4-d]pyridazin-1-yl)-2-(trifluoromethoxy)benzonitrile]
2000 nM | CN1CCC[C@H](Nc2nnc(-c3ccc(Cl)cc3F)c3ccncc23)C1 [Example 70, (S)-1-(4-chloro-2-fluorophenyl)-N-(1-methylpiperidin-3-yl)pyrido[3,4-d]pyridazin-4-amine]
3470 nM | COc1cc(F)ccc1-c1nnc(N[C@@H]2C[C@@H](F)CN(C)C2)c2ccncc12 [Example 182, N-((3R,5R)-5-fluoro-1-methylpiperidin-3-yl)-4-(4-fluoro-2-methoxyphenyl)pyrido[3,4-d]pyridazin-1-amine]
3390 nM | Clc1ccc(-c2nnc(NC3CCN4CCC3C4)c3ccccc23)cc1 (stereo not shown) [Example 167, N-(1-azabicyclo[3.2.1]octan-4-yl)-4-(4-chlorophenyl)phthalazin-1-amine]

Compound | IC50
Clc1ccc(-c2nnc(NC3CN4CCC3CC4)c3ccccc23)cc1 (stereo not shown) [Example 164, N-(4-(4-chlorophenyl)phthalazin-1-yl)quinuclidin-3-amine] | 372 nM
